Laboratory results published in PubChem BioAssay AID248 (DTP/NCI, 2004).
Values joined by “and” are separate entries in the source; they are usually repeats but may differ in a detail not shown here. Equal entries are not always repeated. Toxic doses and inconclusive results are not listed.

System: L1210 leukemia ip in BDF1 mice, survival T/C
Test: NCI In Vivo Anticancer Drug Screen. Data for tumor model L1210 Leukemia (intraperitoneal) in B6D2F1 (BDF1) mice
Conditions: endpoint: mean survival time, higher = longer survival
Method in brief: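 Tumor was transplanted into mice, which were then dosed with test compound or vehicle alone. Survival was recorded for each group, and the treated figure was expressed relative to the control figure.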

[1] = dose: 100.0 mg/kg/injection, schedule: Q04DX003 (ip), vehicle: saline with Tween-80
[2] = dose: 200.0 mg/kg/injection, schedule: Q04DX003 (ip), vehicle: saline with Tween-80
[3] = dose: 400.0 mg/kg/injection, schedule: Q04DX003 (ip), vehicle: saline with Tween-80
[4] = dose: 100.0 mg/kg/injection, schedule: Q04DX002 (ip), vehicle: saline with Tween-80
[5] = dose: 100.0 mg/kg/injection, schedule: Q01DX009 (ip), vehicle: saline with Tween-80
[6] = dose: 200.0 mg/kg/injection, schedule: Q01DX009 (ip), vehicle: saline with Tween-80
[7] = dose: 100.0 mg/kg/injection, schedule: Q01DX001 (ip), vehicle: Klucel (hydroxypropylcellulose) (HPC)
[8] = dose: 200.0 mg/kg/injection, schedule: Q01DX001 (ip), vehicle: Klucel (hydroxypropylcellulose) (HPC)
[9] = dose: 200.0 mg/kg/injection, schedule: Q04DX002 (ip), vehicle: saline with Tween-80

## COCNC(=S)N/N=C/c1ccccn1
dose: 12.5 mg/kg/injection, schedule: Q01DX009 (ip), vehicle: saline with Tween-80
  T/C: 124 % of control
dose: 50.0 mg/kg/injection, schedule: Q01DX009 (ip), vehicle: saline with Tween-80
  T/C: 124 % of control

## CSc1cc(C(=O)O)nc(SC)n1
dose: 100.0 mg/kg/injection, schedule: Q01DX Z (ip), vehicle: methylcellulose (MC)
  T/C: 97 % of control

## COC(=O)C1CCCC(=O)C1C(=O)OC (configuration not stated)
dose: 100.0 mg/kg/injection, schedule: Q04DX003 (ip), vehicle: other
  T/C: 106 % of control
dose: 200.0 mg/kg/injection, schedule: Q04DX003 (ip), vehicle: other
  T/C: 97 % of control
dose: 400.0 mg/kg/injection, schedule: Q04DX003 (ip), vehicle: other
  T/C: 104 % of control

## c1ccc(CCCn2cnc3cnccc32)cc1
dose: 5.0 mg/kg/injection, schedule: Q01DX001 (ip), vehicle: saline
  T/C: 100 % of control
dose: 10.0 mg/kg/injection, schedule: Q01DX001 (ip), vehicle: saline
  T/C: 103 % of control
dose: 20.0 mg/kg/injection, schedule: Q01DX001 (ip), vehicle: saline
  T/C: 105 % of control
dose: 40.0 mg/kg/injection, schedule: Q01DX001 (ip), vehicle: saline
  T/C: 100 % of control
dose: 100.0 mg/kg/injection, schedule: Q01DX001 (ip), vehicle: saline
  T/C: 96 % of control

## COC(=O)CC(C(=O)OC)C(=O)OC
dose: 75.0 mg/kg/injection, schedule: Q01DX001 (ip), vehicle: Klucel (hydroxypropylcellulose) (HPC)
  T/C: 105 % of control
dose: 75.0 mg/kg/injection, schedule: Q01DX009 (ip), vehicle: Klucel (hydroxypropylcellulose) (HPC)
  T/C: 97 % of control
dose: 150.0 mg/kg/injection, schedule: Q01DX001 (ip), vehicle: Klucel (hydroxypropylcellulose) (HPC)
  T/C: 103 % of control
dose: 150.0 mg/kg/injection, schedule: Q01DX009 (ip), vehicle: Klucel (hydroxypropylcellulose) (HPC)
  T/C: 105 % of control
dose: 300.0 mg/kg/injection, schedule: Q01DX001 (ip), vehicle: Klucel (hydroxypropylcellulose) (HPC)
  T/C: 90 % of control
dose: 300.0 mg/kg/injection, schedule: Q01DX009 (ip), vehicle: Klucel (hydroxypropylcellulose) (HPC)
  T/C: 105 % of control

## COc1cc(N(CCCl)CCCl)ccc1C=Nc1ccc(-n2ccnc2)cc1
dose: 68.8 mg/kg/injection, schedule: Q04DX002 (ip), vehicle: Klucel (hydroxypropylcellulose) (HPC)
  T/C: 98 % of control
dose: 137.5 mg/kg/injection, schedule: Q04DX002 (ip), vehicle: Klucel (hydroxypropylcellulose) (HPC)
  T/C: 98 % of control
dose: 275.0 mg/kg/injection, schedule: Q04DX002 (ip), vehicle: Klucel (hydroxypropylcellulose) (HPC)
  T/C: 102 % of control

## O=NN(CCCl)C(=O)NCCc1cccc[n+]1[O-]
dose: 6.25 mg/kg/injection, schedule: Q01DX001 (ip), vehicle: water
  T/C: 154 % of control
dose: 12.5 mg/kg/injection, schedule: Q01DX001 (ip), vehicle: water
  T/C: 184 % of control
dose: 25.0 mg/kg/injection, schedule: Q01DX001 (ip), vehicle: water
  T/C: 312 % of control

## O=[N+]([O-])/C=C/c1cc2ccccc2[nH]1
dose: 100.0 mg/kg/injection, schedule: Q01DX009 (ip), vehicle: other
  T/C: 96 % of control
dose: 200.0 mg/kg/injection, schedule: Q01DX009 (ip), vehicle: other
  T/C: 113 % of control
dose: 400.0 mg/kg/injection, schedule: Q01DX009 (ip), vehicle: other
  T/C: 107 % of control

## NC(N)=Nc1ccc(C(=O)Oc2ccc([N+](=O)[O-])cc2[N+](=O)[O-])cc1
dose: 25.0 mg/kg/injection, schedule: Q04DX003 (ip), vehicle: Klucel (hydroxypropylcellulose) (HPC)
  T/C: 96 % of control
dose: 50.0 mg/kg/injection, schedule: Q01DX009 (ip), vehicle: Klucel (hydroxypropylcellulose) (HPC)
  T/C: 94 % of control
dose: 50.0 mg/kg/injection, schedule: Q04DX003 (ip), vehicle: Klucel (hydroxypropylcellulose) (HPC)
  T/C: 98 % of control
dose: 100.0 mg/kg/injection, schedule: Q01DX009 (ip), vehicle: Klucel (hydroxypropylcellulose) (HPC)
  T/C: 94 % of control
dose: 100.0 mg/kg/injection, schedule: Q04DX003 (ip), vehicle: Klucel (hydroxypropylcellulose) (HPC)
  T/C: 91 % of control

## COc1cc(Oc2cc(OC)c(OC)c(OC)c2)cc(OC)c1OC
[1]
  T/C: 97 % of control
[2]
  T/C: 101 % of control
[3]
  T/C: 97 % of control

## CC(=O)Oc1cccc([N+](=O)[O-])c1
dose: 100.0 mg/kg/injection, schedule: Q04DX002 (ip), vehicle: Klucel (hydroxypropylcellulose) (HPC)
  T/C: 107 % of control
dose: 200.0 mg/kg/injection, schedule: Q04DX002 (ip), vehicle: Klucel (hydroxypropylcellulose) (HPC)
  T/C: 100 % of control
dose: 400.0 mg/kg/injection, schedule: Q04DX002 (ip), vehicle: Klucel (hydroxypropylcellulose) (HPC)
  T/C: 92 % of control

## CCN(CC)CC(OC)C(COC)OC(=O)C(c1ccccc1)c1ccccc1 (configuration not stated)
dose: 13.0 mg/kg/injection, schedule: Q01DX Z (ip), vehicle: saline
  T/C: 105 % of control
dose: 20.0 mg/kg/injection, schedule: Q01DX Z (ip), vehicle: saline
  T/C: 98 % of control
dose: 30.0 mg/kg/injection, schedule: Q01DX Z (ip), vehicle: saline
  T/C: 102 % of control

## CC(=O)OC(C)(C)/C=C/C(=O)C(C)(O)C1C(O)CC2(C)C3CC=C4C(C=C(OC5OC(CO)C(O)C(O)C5O)C(=O)C4(C)C)C3(C)C(=O)CC12C (configuration not stated)
dose: 25.0 mg/kg/injection, schedule: Q04DX002 (ip), vehicle: saline with Tween-80
  T/C: 98 % of control
dose: 50.0 mg/kg/injection, schedule: Q04DX002 (ip), vehicle: saline with Tween-80
  T/C: 98 % of control
[4]
  T/C: 96 % of control and 105 % of control

## S=c1[nH]sc(=S)[nH]1
[5]
  T/C: 100 % of control
[6]
  T/C: 98 % of control

## COC(=O)CCN1CCC1
dose: 100.0 mg/kg/injection, schedule: Q04DX002 (ip), vehicle: saline
  T/C: 97 % of control
dose: 200.0 mg/kg/injection, schedule: Q04DX002 (ip), vehicle: saline
  T/C: 101 % of control
dose: 400.0 mg/kg/injection, schedule: Q04DX002 (ip), vehicle: saline
  T/C: 97 % of control

## FC(F)(F)c1ccc(C=C2c3ccccc3-c3ccccc32)cc1
dose: 12.5 mg/kg/injection, schedule: Q04DX002 (ip), vehicle: Klucel (hydroxypropylcellulose) (HPC)
  T/C: 92 % of control
dose: 25.0 mg/kg/injection, schedule: Q04DX002 (ip), vehicle: Klucel (hydroxypropylcellulose) (HPC)
  T/C: 92 % of control
dose: 50.0 mg/kg/injection, schedule: Q04DX002 (ip), vehicle: Klucel (hydroxypropylcellulose) (HPC)
  T/C: 92 % of control

## O=C1c2ccccc2C(=O)N1c1c2ccccc2cc2ccccc12
dose: 100.0 mg/kg/injection, schedule: Q04DX003 (ip), vehicle: saline sonified
  T/C: 98 % of control
dose: 200.0 mg/kg/injection, schedule: Q04DX003 (ip), vehicle: saline sonified
  T/C: 95 % of control
dose: 400.0 mg/kg/injection, schedule: Q04DX003 (ip), vehicle: saline sonified
  T/C: 95 % of control

## C=CC1(O)CC2CCC1C2 (configuration not stated)
[5]
  T/C: 101 % of control
[6]
  T/C: 96 % of control

## CC(=O)NC(CSCc1ccccc1)(SCc1ccccc1)C(=O)O (configuration not stated)
[7]
  T/C: 92 % of control
[8]
  T/C: 90 % of control
dose: 400.0 mg/kg/injection, schedule: Q01DX001 (ip), vehicle: Klucel (hydroxypropylcellulose) (HPC)
  T/C: 92 % of control

## CCOC(=O)C(Cl)C(C)(O)c1ccccc1 (configuration not stated)
[4]
  T/C: 95 % of control
[9]
  T/C: 95 % of control

## CCOC(=O)c1ccc(NC(=O)N2CCCCC2C)cc1 (configuration not stated)
dose: 100.0 mg/kg/injection, schedule: Q01DX001 (ip), vehicle: saline with Tween-80
  T/C: 93 % of control
[5]
  T/C: 104 % of control
[4]
  T/C: 97 % of control and 99 % of control
[1]
  T/C: 88 % of control
dose: 200.0 mg/kg/injection, schedule: Q01DX001 (ip), vehicle: saline with Tween-80
  T/C: 89 % of control
[6]
  T/C: 104 % of control
[9]
  T/C: 92 % of control and 100 % of control
[2]
  T/C: 96 % of control
dose: 400.0 mg/kg/injection, schedule: Q01DX001 (ip), vehicle: saline with Tween-80
  T/C: 91 % of control
dose: 400.0 mg/kg/injection, schedule: Q01DX009 (ip), vehicle: saline with Tween-80
  T/C: 97 % of control
dose: 400.0 mg/kg/injection, schedule: Q04DX002 (ip), vehicle: saline with Tween-80
  T/C: 94 % of control and 99 % of control
[3]
  T/C: 96 % of control

## Cc1nc(N)[nH]c(=O)c1CCCNS(=O)(=O)c1ccccc1
dose: 50.0 mg/kg/injection, schedule: Q01DX001 (ip), vehicle: Klucel (hydroxypropylcellulose) (HPC)
  T/C: 105 % of control
[7]
  T/C: 94 % of control
[8]
  T/C: 90 % of control

## CN(CCc1cnc2nc(N)nc(N)c2n1)c1ccc(C(=O)O)cc1
dose: 75.0 mg/kg/injection, schedule: Q01DX001 (ip), vehicle: saline
  T/C: 115 % of control
